Results on 129 molecules are retold here after the SangsterLogP compilation.

Usually logD stands for the decadic logarithm of the distribution of all forms, ionised or not, between an organic phase and buffer at a given pH. The low end stands for lower lipophilicity, the high end for higher lipophilicity. What is called logP is a log measure of how a compound divides between an organic and an aqueous phase. The low end stands for lower lipophilicity, the high end for higher lipophilicity.

Molecule `O=[N+]([O-])c1cc(C(F)(F)F)cc([N+](=O)[O-])c1NN=CC(F)(F)F` came in with a logD (pH 4.0) of 2.8. `O=C(NCCO)C(F)(F)Cn1cnc([N+](=O)[O-])n1`: the logP is -0.77. In turn, `O=[N+]([O-])c1ccc(O)c(O)c1` showed a logP of 1.66. The molecule `COc1cc(C)c2c(c1OC)C1CCC(NCc3ccccc3)C(=O)CC1C(NC(C)=O)CC2` (centres undefined) came in with a logP of 3.58. For `N#Cc1ccc2[nH]c(N)nc2c1`, the logP worked out at 1.13. In turn, `CCCOC` registered a logP of 1.21. As to `CCN(CC)CCN`, the logD (pH 13.0) was 0.21. Molecule `FC(F)(F)C(=NNc1ccc(Cl)c(Cl)c1)C(F)(F)F` registered a logD (pH 4.0) of 5.1. As for `Fc1cc(F)c(F)c(F)c1F`, the log partition coefficient (logP) came out at 2.53. On to `O=C(O)CCCOc1ccc(Cl)cc1Cl`, for which the logD (pH 1.0) is 3.53. In the case of `COC(=O)c1ccc(-c2ncc([N+](=O)[O-])n2C)cc1`, where the note is “pH 7.4”, the logD stood at 1.63. Consider `O=C1C(F)=C(N2CC2)C(=O)C(N2CC2)=C1N1CC1`, for which the logP is 0.14. For the molecule `N#CCc1cccc(Oc2ccccc2)c1`, the log partition coefficient (logP) is 3.03. In turn, `FC(F)(F)CCc1ccccc1` returned a log partition coefficient (logP) of 3.31. Still for that read-out and setting: then `CCC12CCN(C)C(Cc3ccc(O)cc31)C2C` (centres undefined), with -1.14; and `O=S1(=O)OCC2C(CO1)C1(Cl)C(Cl)=C(Cl)C2(Cl)C1(Cl)Cl` (centres undefined), with 3.66. As for `CC1CC(C(=O)O)=C(C(=O)O)C(C)C1` (centres undefined), the logD (pH 1.0) worked out at 1.53. Under “pH 7.4”, `O=C(Cn1ccnc1[N+](=O)[O-])NCc1ccccc1` yielded a logD of 0.85. On to `CCC(=O)N(C)C`, for which the logP is -0.11. Regarding `O=C(O)Cn1ccnc1[N+](=O)[O-]`, the logP was -0.34. `O=C(N/N=C/c1ccco1)Nc1ccccc1` returned a log partition coefficient (logP) of 2.52. Molecule `Cc1cc(C)[nH]n1` had a logP of 1.01. In turn, `COc1ccc(CC#N)cc1` had a logP of 1.7.

`Fc1cccnc1` yielded a logP of 0.77.

On to `FN(F)C(c1ccccc1)(c1ccccc1)c1ccccc1`, for which the logP turned out to be 3.73. In the case of `c1ccc(C2CN3CCSC3=N2)cc1` (centres undefined), the logD (pH 9.8) is 1.84. `CCC1=C(N2CC2)C(=O)C(C)=C(N2CC2)C1=O` returned a log partition coefficient (logP) of 1.35.

As for `Cc1ccc(C)[nH]1`, the logP was found to be 1.47. This logP and that of the molecule before are within 0.2 log units of each other. In turn, `C=CCCC=C` showed a logP of 2.87. The same measure, in the same setting: next, `COC(=O)CC(C)C`: 1.82. For the molecule `Sc1nc(-c2ccccc2)ns1`, the logD (pH 5.0) was 2.13.

Consider `CCCCCCOc1ccc(S(N)(=O)=O)cc1`, for which the logD (pH 2.1) turned out to be 2.93. For `c1ccc(COc2cccc3cccnc23)cc1`, the logD (pH 7.4) is 3.51.

Take `C=CC1(C)OC(=O)N(c2cc(Cl)cc(Cl)c2)C1=O` (centres undefined): the logP was 3.1.

Turning to `CCOC(=O)CC(=O)C=Cc1ccc2c(c1)OCO2`, the logP worked out at 2.35.

`Cc1cccc(OCC(O)CNC(C)C)c1` (centres undefined) had a logP of 2.02. As to `O=C1CC(c2ccc(C(F)(F)F)cc2)Cc2c1c(=O)c1cc(Cl)ccc1n2O` (centres undefined), the logP came to 3.46. Where the note is “pH 13.0”, `N=C(N)c1ccccc1` registered a logD of 0.65. Molecule `CCC(C)N(C(=O)SCc1ccccc1)C(C)CC` (centres undefined) displayed a logP of 4.4. The same measure, in the same setting: next, `CCC1OC(=O)C(C)C(OC2CC(C)(OC)C(O)C(C)O2)C(C)C(OC2OCC(O)C(N=[N+]=[N-])C2O)C(C)(O)CC(C)C(=O)CC(O)C1(C)O` (centres undefined): 1.76; `CN(C)N=Nc1ccc(CCCC(=O)O)cc1`: 2.62. On to `CC(C)(C)N(CC(O)COc1ccccc1)CC(O)COc1ccccc1` (centres undefined), for which the logD (pH 13.0) came to 3.99. With `CC(C)(C)c1cccc(C(C)(C)C)n1`, the logP worked out at 4.14. The same measure, in the same setting: then `CON=C(Cc1cccnc1)c1ccc(Cl)cc1Cl`, with 2.51; and `CCOC(=O)CC(=O)c1ccccc1`, with 1.87. On to `CC(=O)OC(C)c1ccccc1` (centres undefined), for which the logP came out at 2.3. Take `c1ccc2c(c1)Oc1ccccc1S2`: the logP came out at 4.54. The molecule `CCc1nc(C)c([N+](=O)[O-])[nH]1` returned a pH-dependent lipophilicity (logD) (pH 7.4) of 0.76. The molecule `CCOC(=O)N[C@H]1CCc2cc(OC)c(OC)c(OC)c2-c2ccc(OC)c(=O)cc21` came in with a logD (pH 7.0) of 1.3. Regarding `CN1CCCC1=O`, the logP is -0.54. Molecule `CC(C(=O)O)c1ccc(N2C(=O)C3CC=CCC3C2=O)cc1` (centres undefined) returned a logP of 2.27.

Regarding `O=C(O)C1CC1`, the logD (pH 1.0) was determined as 0.63.

Turning to `O=C(OCCCc1cnc[nH]1)c1ccccc1`, the logP was 2.64. For `CC(=O)N(C)Nc1ccccc1`, the logP stood at 1.31. The molecule `CN1C(=O)CN=C(c2ccccc2)c2cc(C#N)ccc21` displayed a logD (pH 7.4) of 1.8.

With `CCCCn1cc(C)c(=O)[nH]c1=O`, the logP was 0.91. The molecule `O=[N+]([O-])c1ccc(NN=C(C(F)(F)F)C(F)(F)F)c(C(F)(F)F)c1` gave a logD (pH 4.0) of 4.6.

For `CN(C)/C=C/[N+](=O)[O-]`, the logP is -0.8.

Consider `Nc1nc(=O)n([C@H]2CC[C@@H](CO)O2)cc1Br`, for which the logD (pH 7.0) is -0.48. `CN(C)c1ccc(C#N)cc1` registered a logP of 2.2. On the same count and under the same terms, next, `Nc1ccn(C2CC(CO)C(O)C2O)c(=O)n1` (centres undefined): -2.41; `CNC1=C(N2CC2)C(=O)C(NC)=C(N2CC2)C1=O`: 0.13. Take `NC(=O)c1nc[nH]c1N=NN(CCO)CCO`: the logD (pH 4.2) was -1.04. `CC(C(=O)O)c1ccc(N2C(=O)C3CCCCC3C2=O)cc1` (centres undefined) registered a lipophilicity (logP) of 2.37. On the same count and under the same terms, then `C1COC1`, with -0.14; and `Cc1nc(N(C)C)nc(OC(=O)N(C)C)c1C`, with 1.7. Turning to `CNc1ncnc2c1ncn2[C@H]1C[C@H](O)[C@@H](CO)O1`, for the setting “pH 7.0”, the logD is -0.19.

As to `NC(=O)OCCc1cccc2c1C(=O)C(Br)=C(N1CC1)C2=O`, the logP is 0.68. Turning to `CC1COC(=O)O1` (centres undefined), the logP is -0.41. `CC(=NNc1c([N+](=O)[O-])cc(C(F)(F)F)cc1[N+](=O)[O-])C(F)(F)F` showed a logD (pH 4.0) of 3. As to `Clc1cc(Cl)c2cc(Cl)cc(Cl)c2c1`, the logP is 6.19. The same measure, in the same setting: then `Cc1ncc[nH]1`, with 0.24; and `CCCCCCn1cc(C)c(=O)[nH]c1=O`, with 1.93. `C#CCn1ncc2cc([N+](=O)[O-])ccc21` gave a logD (pH 7.4) of 0.52.

The molecule `O=C(OCCc1ccccc1)c1ccccc1` yielded a lipophilicity (logP) of 4.01. `ON=Cc1nnc(-c2ccccc2)o1` had a logP of 2.03. On the same count and under the same terms, next, `CC(C)C(C)C`: 3.42; `c1ccc(Cn2cccn2)cc1`: 1.78. Regarding `CCOC(=O)CCl`, the logD (pH 5.0) is 0.94. `Cc1cccc(OCc2ccccc2)n1` registered a logP of 3.43.

`C1CCCCCC1` showed a logP of 4. `CCOC(=O)C(=O)Nc1ccccc1`: the logP is 1.48.

In turn, `Clc1cccc2cccnc12` gave a logD (pH 7.4) of 2.44.

On to `COc1ccc2c(c1OC)-c1ccc(OC)c(=O)cc1[C@@H](NC(C)=O)CC2`, for which the logD (pH 7.0) is 1.02. In the case of `C/C=C/C(C)=O`, the logP turned out to be 0.52. `FC(F)(F)c1ccccc1Cl`: the logP was 3.53. On to `C1CCC2=NCCCN2CC1`, for which, under “pH 13.0”, the log distribution coefficient (logD) was 1.38. The molecule `Cn1c(N)nc2ccccc21` yielded a logP of 0.95. Turning to `O=[N+]([O-])c1ccccc1SSc1ccccc1[N+](=O)[O-]`, the logP is 3.37. `Cn1ccc(=O)n(C)c1=O`: the logP is -0.54. The same measure, in the same setting: next, `Cc1ccncn1`: 0.16. Take `Nc1ccc2c(n1)[nH]c1ccccc12`: the logD (pH 7.4) came to 2.6. Consider `CC(=O)N=c1[nH]c(=O)ccn1C1OC(COC(C)=O)C(OC(C)=O)C1OC(C)=O` (centres undefined), for which the lipophilicity (logP) was -0.16. Still for that read-out and setting: next, `CCCOP(OCCC)OCCC`: 2.26. Take `Clc1cc(Cl)c2c(Cl)ccc(Cl)c2c1`: the logP was determined as 5.76. The molecule `O=[N+]([O-])c1cc(C(F)(F)F)ccc1NN=C(C(F)(F)F)C(F)(F)F` returned a pH-dependent lipophilicity (logD) (pH 4.0) of 4.8. Regarding `O=c1n[n+]([O-])ccn1[C@@H]1O[C@H](CO)[C@@H](O)[C@H]1O`, the logP was -2.43. For `Cc1cc(C)c(N(C)C)c(C)c1`, the logD (pH 13.0) was found to be 4.44. In turn, `c1ncc2c(n1)-c1cn[nH]c1-2` yielded a lipophilicity (logP) of 0.14. `Cn1c([N+](=O)[O-])cnc1-c1ccc(F)cc1` returned a logD (pH 7.4) of 1.83.

The molecule `CCCc1ncc([N+](=O)[O-])n1CCNC(=S)OC` displayed a logD (pH 7.4) of 1.94.

In the case of `CC(O)CNC(=O)C(F)(F)Cn1cnc([N+](=O)[O-])n1` (centres undefined), the lipophilicity (logP) was -0.48. The molecule `Nc1ncc(Cc2cccc(Cl)c2Cl)c(N)n1` yielded a logD (pH 13.0) of 2.81. On to `Nc1nc2c(ncn2[C@@H]2O[C@H](CO)[C@@H](O)[C@@H]2F)c(=O)[nH]1`, for which the logD (pH 7.0) is -1.18. The molecule `COC(=O)C(Cl)(Cl)Cl` had a logP of 2.03.

For `OC1CCCCCCCCCCC1`, the logP stood at 3.75. Take `Cn1ccnc1`: under “pH 8.4”, the logD is -0.06. Molecule `O=c1c2ccccc2oc2ccccc12` returned a logP of 3.39. In the case of `CC(=O)C(C)(C)C`, the logP turned out to be 1.2. `O=C1C=C(NCCO)C(=O)c2ccccc21` came in with a logP of 1.23. For `BrCCCBr`, the logP stood at 2.37. For the molecule `N#Cc1ccc(NN=C(C(F)(F)F)C(F)(F)F)c([N+](=O)[O-])c1`, the logD (pH 4.0) turned out to be 3.4. For `S=c1nc(-c2ccccc2)[nH][nH]1`, where the note is “pH 7.0”, the logD amounted to 1.84. In the case of `Nc1ccc([C@@H](O)[C@@H](CO)NC(=O)C(Cl)Cl)cc1`, the logP is -0.29.

In turn, `CCNCCNCC` showed a logD (pH 13.0) of 0.21. Regarding `c1ccc2c(c1)CCc1ccccc1-2`, the lipophilicity (logP) came to 4.52.

In turn, `CN(C)c1ccc(C(=O)c2ccc(N(C)C)cc2)cc1` yielded a logP of 3.87.

Take `N#CCN`: under “pH 13.0”, the logD is -1.37. For the molecule `N#CC#N`, the logP was determined as 0.07. Molecule `Oc1ccc(CCNCCCCCCNCCc2ccccc2)cc1O` registered a logP of 1.88.

For `COCC(O)Cn1cc([N+](=O)[O-])nn1` (centres undefined), the logP was -0.36. As for `Cc1nc(C)c([N+](=O)[O-])[nH]1`, where the note is “pH 7.4”, the logD was 0.43. Molecule `CCN(CC)c1c([N+](=O)[O-])cc(C(F)(F)F)c(N)c1[N+](=O)[O-]` returned a logP of 4.3. Take `COC(=O)Nc1c(C(C)C)cccc1C(C)C`: the logP is 2.2. `CCC1COC(Cn2cncn2)(c2ccc(-n3cncn3)cc2Cl)O1` (centres undefined) returned a logD (pH 7.0) of 1.28. The molecule `CCOc1ccccc1OCC` had a logP of 2.42. On the same count and under the same terms, then `Nc1ccccc1SSc1ccccc1N`, with 3.05. In the case of `NC(=O)COc1ccccc1Cc1nc(N)cc(N)n1`, where the note is “pH 13.0”, the logD is -0.34. Turning to `c1n[nH]c2c1CC[C@H]1c3[nH]ncc3CC[C@H]21`, the logD (pH 5.0) stood at 0.3.
